Assay results reported in the NIST ThermoML archive (doi:10.1016/j.tca.2009.10.001).
Numbers after ± are expanded uncertainties.

Experiment: xn = mol fraction of the nth substance listed
Conditions: 101 kPa, Liquid; for viscosity: Capillary tube (Ostwald / Ubbelohde) method; for speed of sound: Linear variable-path acoustic interferometer; for mass density: Pycnometric method

CCC#N [propanenitrile] + Cc1ccccc1
Conditions	mass density, 298.15 K [kg/m3]	mass density, 303.15 K [kg/m3]	mass density, 308.15 K [kg/m3]	speed of sound, 298.15 K [m/s]	speed of sound, 303.15 K [m/s]	speed of sound, 308.15 K [m/s]	viscosity, 298.15 K [mPa·s]	viscosity, 303.15 K [mPa·s]	viscosity, 308.15 K [mPa·s]
x2 = 0	775.4 ± 0.3	769.9 ± 0.3	765.2 ± 0.4	1252.4 ± 1.8	1232.7 ± 1.7	1213.7 ± 1.7	0.4107 ± 0.0055	0.3991 ± 0.0054	0.3822 ± 0.0053
x2 = 0.0668	784.4 ± 0.3	778.8 ± 0.3	773.9 ± 0.3	1257.2 ± 1.7	1237 ± 1.7	1217.6 ± 1.7	0.4222 ± 0.0055	0.4087 ± 0.0054	0.3907 ± 0.0053
x2 = 0.1397	793.6 ± 0.3	787.9 ± 0.3	783 ± 0.3	1262.2 ± 1.7	1241.7 ± 1.7	1222 ± 1.7	0.4346 ± 0.0055	0.4194 ± 0.0054	0.4004 ± 0.0054
x2 = 0.2164	802.6 ± 0.3	796.8 ± 0.3	791.9 ± 0.3	1267.3 ± 1.7	1246.5 ± 1.7	1226.7 ± 1.7	0.4476 ± 0.0055	0.4306 ± 0.0054	0.4106 ± 0.0054
x2 = 0.3011	811.7 ± 0.3	806 ± 0.3	801.1 ± 0.3	1272.9 ± 1.7	1252 ± 1.7	1232 ± 1.6	0.4617 ± 0.0055	0.4432 ± 0.0054	0.422 ± 0.0054
x2 = 0.3905	820.5 ± 0.3	814.9 ± 0.3	810.1 ± 0.3	1278.2 ± 1.6	1257.1 ± 1.6	1237.1 ± 1.6	0.4765 ± 0.0055	0.4561 ± 0.0054	0.4341 ± 0.0054
x2 = 0.4917	829.4 ± 0.3	823.9 ± 0.3	819.1 ± 0.3	1283 ± 1.6	1262.1 ± 1.6	1242.1 ± 1.6	0.4927 ± 0.0055	0.4702 ± 0.0055	0.4475 ± 0.0054
x2 = 0.5989	837.7 ± 0.3	832.3 ± 0.3	827.6 ± 0.3	1287.1 ± 1.6	1266.2 ± 1.6	1246.3 ± 1.6	0.5082 ± 0.0055	0.4842 ± 0.0055	0.4606 ± 0.0054
x2 = 0.7174	845.7 ± 0.3	840.5 ± 0.3	835.8 ± 0.3	1291.2 ± 1.6	1270.4 ± 1.6	1250.5 ± 1.5	0.5247 ± 0.0055	0.4989 ± 0.0055	0.4748 ± 0.0054
x2 = 0.854	853.7 ± 0.3	848.6 ± 0.3	844 ± 0.3	1295.2 ± 1.5	1274.5 ± 1.5	1255.2 ± 1.5	0.5434 ± 0.0056	0.5158 ± 0.0055	0.4911 ± 0.0054
